Test results: US20260132129A1 (Genesis Therapeutics, Inc., priority 2022, published 2026)

Biological target: T1, PI3Kα H1047R (T47D cells) (Homo sapiens, UniProt P42336, H1047R)
T1 construct: endogenous in cells; host or cells: T47D cells
Assay: PI3Kα cellular assay: pAKT HTRF in T47D cells after EGF stimulation
Type: cell-based
Conditions: for IC50: T47D cells (PI3Kα H1047R), pAKT S473 HTRF
Method: SKBR3 or T47D cells are seeded in DMEM containing 10% FBS at 25k cells/well into 96-well cell culture format. Cells are incubated overnight at 37° C. in a 5% CO2 incubator and the following day cell media is aspirated, adherent cells are washed 1× with room temperature PBS prior to serum-free media application. Cells are returned to 37° C. 5% CO2 incubator and incubated a further 16 hrs. Compounds are added to serum starved adherent cells with a top dose of 10,000 nM and 3× multiple dose reductions for a minimum dose of 0.5 nM diluted in DMSO. Cell/compound incubation continues for 1 hr in a 37° C., 5% CO2 incubator prior to 10 minute PIK3CA stimulation with 20 ng/ml EGF. Cells treated with 0.1% DMSO and 20 ng/mL EGF are employed as negative control, cells treated with 10 uM Alpelisib and 20 ng/mL EGF are employed as a positive control. After 10 mins, plates are removed from incubator and cells are lysed with buffer and shaking 45 minutes. […] 384 well plate is left overnight at room temperature before reading HTRF on an Envision plate reader.
ND denotes value not determined with that assay for the specified compound; • for T47D (H1047R) selectivity over SKBR3 (WT): A denotes >20-fold; B denotes 20-fold≥value>5-fold; C denotes ≤5-fold. ND denotes value not determined with that assay for the specified compound; and • for T47D pAKT lipophilic efficiency (LiPE): A denotes >4; B denotes 4≥value>2; C denotes ≤2. ND denotes value not determined with that assay for the specified compound.

[1] = 1 hr compound, 20 ng/ml EGF 10 min
[2] = selectivity T47D (H1047R) over SKBR3 (WT), pAKT HTRF
[3] = selectivity of T47D (H1047R) over SKBR3 (WT) pAKT IC50

T1 sequence (P42336 whole entry H1047R): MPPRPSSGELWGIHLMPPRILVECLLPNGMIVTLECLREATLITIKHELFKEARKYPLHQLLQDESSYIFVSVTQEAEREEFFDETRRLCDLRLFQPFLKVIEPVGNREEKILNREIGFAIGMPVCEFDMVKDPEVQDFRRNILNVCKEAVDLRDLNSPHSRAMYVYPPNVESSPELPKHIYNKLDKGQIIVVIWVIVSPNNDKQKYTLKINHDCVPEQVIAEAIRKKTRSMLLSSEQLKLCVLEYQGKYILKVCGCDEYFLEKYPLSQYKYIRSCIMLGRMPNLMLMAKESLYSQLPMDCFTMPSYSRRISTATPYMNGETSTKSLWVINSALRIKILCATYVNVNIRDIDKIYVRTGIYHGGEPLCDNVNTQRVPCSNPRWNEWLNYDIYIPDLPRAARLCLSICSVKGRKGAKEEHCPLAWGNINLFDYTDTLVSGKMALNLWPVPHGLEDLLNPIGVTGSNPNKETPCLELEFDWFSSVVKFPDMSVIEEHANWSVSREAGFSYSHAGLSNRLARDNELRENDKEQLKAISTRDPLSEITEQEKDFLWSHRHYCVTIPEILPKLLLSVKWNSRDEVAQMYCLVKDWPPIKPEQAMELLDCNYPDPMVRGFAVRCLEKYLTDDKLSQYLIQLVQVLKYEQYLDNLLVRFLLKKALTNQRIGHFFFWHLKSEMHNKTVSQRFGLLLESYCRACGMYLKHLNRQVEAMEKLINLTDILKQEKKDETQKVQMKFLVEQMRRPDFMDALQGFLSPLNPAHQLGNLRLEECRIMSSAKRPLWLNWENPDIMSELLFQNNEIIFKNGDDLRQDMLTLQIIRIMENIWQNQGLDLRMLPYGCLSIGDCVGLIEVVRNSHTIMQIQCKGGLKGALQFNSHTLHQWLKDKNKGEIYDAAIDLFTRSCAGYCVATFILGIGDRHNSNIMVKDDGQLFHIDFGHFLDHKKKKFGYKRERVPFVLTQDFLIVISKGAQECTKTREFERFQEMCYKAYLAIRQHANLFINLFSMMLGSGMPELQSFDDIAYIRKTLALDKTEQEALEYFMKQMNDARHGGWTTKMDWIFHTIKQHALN
T1 sequence (P27986 whole entry partner): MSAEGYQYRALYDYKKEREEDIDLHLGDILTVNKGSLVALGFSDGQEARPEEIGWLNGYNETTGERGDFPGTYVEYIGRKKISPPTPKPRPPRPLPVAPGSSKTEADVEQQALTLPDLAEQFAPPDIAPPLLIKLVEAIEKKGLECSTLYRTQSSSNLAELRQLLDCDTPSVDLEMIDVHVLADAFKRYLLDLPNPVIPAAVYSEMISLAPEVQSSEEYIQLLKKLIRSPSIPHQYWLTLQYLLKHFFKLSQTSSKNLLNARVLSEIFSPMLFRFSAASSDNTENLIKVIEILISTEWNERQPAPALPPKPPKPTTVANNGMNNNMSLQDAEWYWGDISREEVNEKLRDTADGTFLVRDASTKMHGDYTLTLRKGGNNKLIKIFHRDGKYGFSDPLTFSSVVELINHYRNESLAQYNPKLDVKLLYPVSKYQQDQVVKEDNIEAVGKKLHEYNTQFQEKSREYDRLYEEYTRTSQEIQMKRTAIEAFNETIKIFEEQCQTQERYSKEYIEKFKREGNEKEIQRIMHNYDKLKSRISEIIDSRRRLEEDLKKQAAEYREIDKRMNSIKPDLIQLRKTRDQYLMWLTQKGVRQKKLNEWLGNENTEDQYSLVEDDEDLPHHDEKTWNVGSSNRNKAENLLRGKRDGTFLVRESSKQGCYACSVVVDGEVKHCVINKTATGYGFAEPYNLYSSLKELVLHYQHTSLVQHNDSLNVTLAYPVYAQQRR

| Compound | IC50 [1] | T47D pAKT S473 HTRF IC50 (H1047R): T47D (H1047R) selectivity over SKBR3 (WT) [2] | IC50 (EGF stimulation) | T47D pAKT S473 HTRF IC50 (H1047R): T47D (H1047R) selectivity over SKBR3 (WT) [3] |
| --- | --- | --- | --- | --- |
| Cc1cc([C@@H](C)NC2=C(CC(=O)O)C=CCC2)c2nc(N3CCSCC3)cc(=O)n2c1 [Compound 285] | > 2 µM | C (C denotes ≤5-fold) |  |  |
| Cc1cc(C(C)Nc2ccccc2-c2ccnnc2)c2nc(-c3ccc(C)c(Cl)c3)c(C)c(=O)n2c1 (stereo not drawn) [Compound 1140] |  | A (A denotes >20-fold) |  |  |
| Cc1cc([C@H](C)Nc2ccccc2S(N)(=O)=O)c2nc(-c3ccc(C4CCNCC4)nc3)c(C)c(=O)n2c1 [Compound 1345] |  | C (C denotes ≤5-fold) |  |  |
| CCn1nc(N)c2cc(-c3cc(=O)n4cc(C)cc([C@@H](C)Nc5ccccc5C(=O)O)c4n3)ccc21 [Compound 722] |  |  | < 0.1 µM | A (A denotes >20-fold) |
| Cc1cc(C(C)Nc2ccccc2C(=O)O)c2nc(-c3ccnc(C)c3)c(C)c(=O)n2c1 (stereo not drawn) [Compound 1202] |  | A (A denotes >20-fold) |  |  |
| COc1cccc(NC(C)c2cc(C)cn3c(=O)cc(N4Cc5ccccc5C4)nc23)c1CO (stereo not drawn) [Compound 865] |  |  | > 2 µM | C (C denotes ≤5-fold) |
| Cc1cc([C@@H](C)Nc2ccccc2C(=O)O)c2nc(-n3cnc4ccc(O)cc43)cc(=O)n2c1 [Compound 826] |  |  | 0.5 to 2 µM | B (B denotes 20-fold≥value>5-fold) |
| Cc1cc([C@@H](C)Nc2cccc3[nH]nnc23)c2nc(N3CCOCC3)cc(=O)n2c1 [Compound 744] |  |  |  | B (B denotes 20-fold≥value>5-fold) |
| Cc1cc([C@H](C)Nc2ccccc2C(=O)O)c2nc(-c3ccnc(C4CC4)c3)c(C)c(=O)n2c1 [Compound 954] |  |  | 0.5 to 2 µM | B (B denotes 20-fold≥value>5-fold) |
| Cc1cc([C@@H](C)Nc2ccccc2C(=O)O)c2nc(-c3cnc4c(c3)c(C)cn4C)c(C)c(=O)n2c1 [Compound 1050] |  |  | < 0.1 µM | A (A denotes >20-fold) |
| CC(=O)Nc1nn(C)c2ccc(-c3cc(=O)n4cc(C)cc([C@@H](C)Nc5ccccc5C(=O)O)c4n3)cc12 [Compound 793] |  |  | > 2 µM | C (C denotes ≤5-fold) |
| Cc1cc([C@H](C)Nc2ccccc2S(N)(=O)=O)c2nc(-c3cccc(C#N)c3)c(C)c(=O)n2c1 [Compound 1035] |  |  | > 2 µM | C (C denotes ≤5-fold) |
| CCc1c(-c2ccc3c(c2)c(C)cn3C)nc2c([C@H](C)Nc3ccccc3C(=O)O)cc(C)cn2c1=O [Compound 1043] |  |  |  | B (B denotes 20-fold≥value>5-fold) |
| CC(=O)N1CCC(c2ccc(-c3nc4c([C@H](C)Nc5ccccc5C(=O)O)cc(C)cn4c(=O)c3C)cc2)CC1 [Compound 1290] |  | C (C denotes ≤5-fold) | > 2 µM |  |
| CC(Nc1ccccc1C(=O)O)c1cc(C(F)(F)F)cn2c(=O)cc(N3Cc4ccccc4C3)nc12 (stereo not drawn) [Compound 922] |  |  | < 0.1 µM | A (A denotes >20-fold) |
| Cc1cc(C(C)Nc2ccccc2-c2nnn[nH]2)c2nc(N3Cc4ccccc4C3)cc(=O)n2c1 (stereo not drawn) [Compound 877] |  |  | 0.1 to 0.5 µM | A (A denotes >20-fold) |
| Cc1cc([C@H](C)Nc2ccccc2C(=O)O)c2nc(N3Cc4ccccc4C3)cc(=O)n2c1 (single isomer, unassigned) [Compound 393] | < 0.1 µM | A (A denotes >20-fold) |  |  |
| Cc1cc([C@@H](C)Nc2ccccc2C(=O)O)c2nc(-c3cnc(C)c(Cl)c3)c(C)c(=O)n2c1 (single isomer, unassigned) [Compound 951] |  |  | < 0.1 µM | A (A denotes >20-fold) |
| Cc1cc(C(C)Nc2ccccc2C(=O)O)c2nc(N3C[C@H]4C[C@@H](C5CCN(S(=O)(=O)N(C)C)CC5)C[C@H]4C3)cc(=O)n2c1 (stereo partly drawn) [Compound 844] |  |  | 0.5 to 2 µM | B (B denotes 20-fold≥value>5-fold) |
